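Five compound concentrations were applied to cells in 96-well plates for 48 hours; endpoints were derived by simple linear interpolation of the resulting dose-response curve. Definition used: TGI = concentration required for complete inhibition of growth.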

For the assay, the system named is M19-MEL melanoma. In words: DTP human tumour cell line panel, 48 h.

As to `O=C1C(Cl)N(c2cccc([N+](=O)[O-])c2)C1c1c[nH]c2ccccc12` (stereo unspecified), the TGI (in general, the concentration giving total growth inhibition) came out at 42.5 µM.
